Assay [1] concerns untransformed MCF-10A cells. Description: Clonogenic cell survival assay. The settings on record: 24 hours ZNA, then three weeks of growth, crystal violet.
Description: (§4) Clonogenic cell survival assays were conducted as described in Franken NAP, Rodermond H M, Stap J, Haveman J, van Bree C.
(§5) Further experiments were also conducted to assess the effects of short-term ZNA treatment on long-term cell survival and proliferation. Cells were treated for 24 hours with ZNA then cultured in the absence of the small molecule; following three weeks of growth, colonies were stained with crystal violet and quantified (FIG. 1D).
Assay [2] concerns LC3 in MCF-10A cells. The assay can be described thus: Western blot of autophagosome-associated protein LC3A/B. In kind it is cell-based, human. The method, then:
Western blot analysis: For analysis of protein expression by Western blot analysis, the procedure set forth in Gligorich et al. was used. Gligorich K, Vaden R, Shelton D, Wang G, Matsen C, Looper R, et al. Development of a screen to identify selective small molecules active against patient-derived metastatic and chemoresistant breast cancer cells. Breast Cancer Res 2013; 15(4):R58. The cells were cultured and treated in 10-cm plates. Cells were harvested in cold radioimmunoprecipitation assay (RIPA) buffer (50 mM Tris-HCl, 150 mM NaCl, 0.1% sodium dodecyl sulfate (SDS), 0.5% sodium deoxycholate, and 1% Triton X-100) supplemented with protease and phosphatase inhibitors (Sigma). Protein concentration was measured using a BCA assay (Thermo Scientific) and […] of protein was resolved by gel electrophoresis using an SDS polyacrylamide gel. Protein was transferred to an Immobilon-FL PVDF membrane (Millipore, Billerica, Mass., USA) and the membrane was blocked for 1 hour at room temperature with Odyssey blocking buffer (Li—COR). […]
Further cell death characterization studies were also conducted to establish the role of autophagy in ZNA-mediated cell death. To assess the level of autophagic induction following treatment with ZNA, levels of the autophagosome-associated protein LC3A/B were measured by western blot analysis. […]
(In general: Immunoblotting shows a protein as a band on a membrane.)

The test system of assay [3] is cancer cells (malignant cell types tested). Description: Clonogenic cell survival assay. The settings on record: 24 hours ZNA, then three weeks of growth, crystal violet.
Description: as §4, §5
Assay [4] has as its system MCF-7s. The assay can be described thus: Cell viability of MCF-7 cells treated with ZNA and ZNA analogues. In kind it is cell-based, human. The settings on record: Homo sapiens, MCF7S; 24 h treatment. An excerpt: Of the analogues evaluated, those with more electron-donating groups at C5 or on the N^2-carbonyl seem to improve activity.
Assay [5] concerns MCF-10A normal mammary epithelial cell line. Description: Cell death by propidium iodide staining and flow cytometry. In kind it is cell-based, human. As to the method: Measurement of cell death by propidium iodide staining: Cells were cultured to 80% confluence in 6-well plates and the growth media was then replaced with low serum (2% FBS) drug-containing media. Each condition was assessed in triplicate. Following the completion of treatment, the media and floating cells were collected and combined with the trypsinized adherent cells. The cells were washed with 2% FBS/HBSS, and resuspended in a propidium iodide solution (Cell Signaling) for analysis by flow cytometry. The percentage of propidium iodide positive cells for each treatment condition were averaged and normalized to the vehicle-treated control. The normalized data were plotted as the average±standard error of three replicates.
In order to validate the transition metal screen with a second cell viability assay, propidium iodide uptake was measured in four cell lines by flow cytometry following a 24-hour treatment with either 30 μM ZNA alone or in combination with 30 µM CuSO4 or 30 μM ZnSO4 (FIG. 2B).
Since autophagy can stimulate both pro-death and pro-survival pathways, experiments were next conducted to assess how autophagic inhibitors impacted ZNA's cell death profile. […] As such, cells were treated with ZNA in combination with chloroquine, an inhibitor of autophagosome function, and cell death was assessed by propidium iodide stain following 72 hours of treatment. […]

Assay [6] can be described thus: Isothermal titration calorimetry of the small molecule with zinc or copper. In kind it is binding. Conditions: ITC, data not shown.
For assay [7], the system named is pleural effusion (PE1100025) primary metastatic breast cancer cells. The assay can be described thus: 12-point dose response, ATP cell viability assay. It is filed as cell-based, human. Conditions: 12-point dose response.
In assay [8] the test system is MCF-10A cells. Description: Intracellular Zn^2+ by FluoZin-3 staining and flow cytometry. In kind it is cell-based, human. As to the method: (§1) Measurement of intracellular Zn^2+ by FluoZin-3 staining: Cells were seeded in 6-well plates at a density such that at the time of analysis, wells would be 70-80% confluent. Following the completion of treatment, the drug-containing media was removed and replaced with Hank's Balanced Salt Solution (HBSS, Life Technologies) containing 2.5 μM FluoZin-3. The cells were incubated with the indicator for 30 minutes at room temperature in the dark. After staining, the cells were trypsinized, resuspended in HBSS containing 2% FBS, and relative mean fluorescence was measured by flow cytometry (FACscan, BD Biosciences, San Jose, Calif., USA).
(§2) In order to determine whether the transcriptional changes in metal trafficking genes were functionally relevant to ZNA's mechanism of action, intracellular Zn^2+ was quantified using the fluorescent indicator FluoZin-3 followed by flow cytometry analysis (FIG. 1G).
To better understand the cancer-selective synergism observed between ZNA and Zn^2+, an experiment was conducted to measure intracellular Zn^2+ using the fluorescent Zn^2+ indicator FluoZin-3.
(§3) Further probing the ability of ZNA to stimulate increases in intracellular Zn^2+, MCF-10A and MCF-7 cells were treated for three hours with 30 μM ZNA (both with and without exogenous ZnSO4) in zinc-free media; intracellular zinc was then quantified by FluoZin-3 staining (FIG. 3B).
Background: In flow cytometry, cells or beads pass a laser one at a time.

In assay [9] the test system is MCF-10A normal mammary epithelial cell line. The assay can be described thus: Dose response, luciferase-based ATP (ATPlite) viability assay. In kind it is cell-based, human. Conditions: five days of treatment. In general terms: Cellular ATP, detected with luciferase, serves as a proxy for viable cell number.
The subject of assay [10] is MCF-7 cells. The assay can be described thus: Intracellular Zn^2+ by FluoZin-3 staining and flow cytometry. In kind it is cell-based, human. The method, then:
as §1, §2, §3

[11] abbreviates: 30 μM ZNA alone, three hours, zinc-free media.
[12] abbreviates: ZNA and ZnSO4, three hours, zinc-free media, compared to ZnSO4 alone.

The term IC50 denotes the point on the concentration scale where inhibition reaches its midpoint. On to `COc1ccc(-c2c(Cc3ccccc3)[nH]/c(=N\C(=O)c3ccccc3F)n2C)cc1` [ZNA, (E)-N-(4-benzyl-5-(4-methoxyphenyl)-1-methyl-1H-imidazol-2(3H)-ylidene)-2-fluorobenzamide], for which the “long-term proliferative potential (colonies)” value in assay [1] is reported as “greatly attenuated”; in assay [3], “significantly affected long-term proliferative potential”. Also, the LC3 protein result in assay [2] (30 μM ZNA with 30 μM ZnSO4, 6 hours) was “significant increases were not observed”. Also, the LC3 level result in assay [2] (ZNA alone, 48 and 72 hours) was “only in the cancer cell lines”. For the same compound, the IC50 in [4] is 8.8 µM. Also, the “cell death (propidium iodide uptake)” value in [5] (30 μM ZNA with 30 μM ZnSO4, 24 hours) was “unaffected”. In addition, the “ZNA-induced cell death (propidium iodide)” value in assay [5] (ZNA with chloroquine, 72 hours) is “did not significantly affect cell death”. Also, the “direct interaction with zinc or copper” value in [6] is “no evidence to suggest direct binding”. Besides, the values for the cell viability entry in [7] and in [9] were “effective at low micromolar concentrations” and “largely unaffected”, respectively. Further, the FluoZin-3 fluorescence entry in assay [8] (setting [11]) and in assay [10] (setting [11]) was “no significant increase in FluoZin-3 fluorescence” in each case. The “intracellular zinc (FluoZin-3)” value in assay [8] (30 μM ZNA alone, up to 48 hours) is reported as “only modest increases in intracellular zinc”. In addition, the “increase in FluoZin-3 fluorescence” value in [8] (30 μM ZNA with 30 μM ZnSO4, three hours) was 9 fold; in assay [10] (30 μM ZNA alone, 48 hours), 13 fold. Further, the “fluorescence (FluoZin-3)” value in assay [8] (setting [12]) is on record as “reduction in fluorescence”. Also, the “increase in fluorescence (FluoZin-3)” value in assay [10] (setting [12]) is recorded as 4.3 fold.

For the origin of these results see patent publication US10493061B2, “Compositions and methods comprising 2-(acylamino)imidazoles” (priority 2014, dated 2019).
